These are literature values, as cited in patent US20230285276A1, “Implantable Medical Device for the Delivery of Aromatase Inhibitor” (Celanese EVA Performance Polymers LLC, priority 2022, published 2023).

One data set relates to circulating estrogen. Conditions: postmenopausal women.
Data set [1] concerns adrenal biosynthesis of corticosteroids or aldosterone. Conditions: in vivo.

SMILES strings stand for the structures.

Take `C=C1C[C@@H]2[C@H](CC[C@]3(C)C(=O)CC[C@@H]23)[C@@]2(C)C=CC(=O)C=C12` [Exemestane, 6-methylenandrosta-1,4-diene-3,17-dione]: the “solubility in N, N-dimethylformamide” value (N, N-dimethylformamide, descriptive term) is “freely soluble”. Moreover, under “methanol, descriptive term”, the solubility in methanol entry is “soluble”. Further, the “solubility in water (descriptive term)” value (water) is reported as “practically insoluble”. In addition, the circulating estrogen concentration result in the data set on circulating estrogen is “lowers”. The “effect on adrenal biosynthesis of corticosteroids or aldosterone” value in data set [1] is recorded as “no detectable effect”.
